Legend:
Format in all cases: in vivo
Stellaria media [1] = test: Pre-emergence herbicidal activity; conditions: pre-emergence method, application rate of 0.1 kg or less of active substance per hectare, visual scoring after 3 to 4 weeks
Description: (§1) Seeds or rhizome pieces of mono- and dicotyledonous weeds were placed in sandy loam in cardboard pots and covered with soil. The compounds according to the invention, formulated in the form of wettable powders or emulsion concentrates, were then applied to the surface of the covering soil in the form of aqueous suspensions or emulsions at an application rate of 100 to 8001 of water/ha (converted), at various dosages.
(§2) After the treatment, the pots were placed in a greenhouse and kept under good growth conditions for the weeds. Visual scoring of the damage to the plants or the emergence damage was carried out after the emergence of the test plants after a test period of 3 to 4 weeks, by comparison with untreated controls. As shown by the results, the compounds according to the invention have good herbicidal pre-emergence activity against a broad spectrum of weed grasses and broad-leaved weeds.

Viola tricolor [2] = test: Pre-emergence herbicidal activity; conditions: pre-emergence method, application rate of 0.1 kg or less of active substance per hectare, visual scoring after 3 to 4 weeks
Description: as §1, §2

Matricaria inodora [3] = test: Pre-emergence herbicidal activity; conditions: pre-emergence method, application rate of 0.1 kg or less of active substance per hectare, visual scoring after 3 to 4 weeks
Description: as §1, §2

Papaver rhoeas = test: Pre-emergence herbicidal activity; conditions: pre-emergence method, application rate of 0.1 kg or less of active substance per hectare, visual scoring after 3 to 4 weeks
Description: as §1, §2

Lolium multiflorum [4] = test: Pre-emergence herbicidal activity; conditions: pre-emergence method, application rate of 0.1 kg or less of active substance per hectare, visual scoring after 3 to 4 weeks
Description: as §1, §2

Stellaria media [5] = test: Post-emergence action against weeds; conditions: post-emergence method, application rate of 0.1 kg or less of active substance per hectare, visual scoring after about 3 to 4 weeks
Method: (§3) Seeds or rhizome pieces of monocotyledonous and dicotyledonous weeds were placed in sandy loam in plastic pots, covered with soil and cultivated in a greenhouse under good growth conditions. Three weeks after sowing, the test plants were treated at the three-leaf stage.

Veronica persica = test: Post-emergence action against weeds; conditions: post-emergence method, application rate of 0.1 kg or less of active substance per hectare, visual scoring after about 3 to 4 weeks
Method: as §3

Viola tricolor [6] = test: Post-emergence action against weeds; conditions: post-emergence method, application rate of 0.1 kg or less of active substance per hectare, visual scoring after about 3 to 4 weeks
Method: as §3

Matricaria inodora [7] = test: Post-emergence action against weeds; conditions: post-emergence method, application rate of 0.1 kg or less of active substance per hectare, visual scoring after about 3 to 4 weeks
Method: as §3

Ipomoea purpurea = test: Post-emergence action against weeds; conditions: post-emergence method, application rate of 0.1 kg or less of active substance per hectare, visual scoring after about 3 to 4 weeks
Method: as §3

Abuthilon theophrasti = test: Post-emergence action against weeds; conditions: post-emergence method, application rate of 0.1 kg or less of active substance per hectare, visual scoring after about 3 to 4 weeks
Method: as §3

Amaranthus retroflexus = test: Post-emergence action against weeds; conditions: post-emergence method, application rate of 0.1 kg or less of active substance per hectare, visual scoring after about 3 to 4 weeks
Method: as §3

Lolium multiflorum [8] = test: Post-emergence action against weeds; conditions: post-emergence method, application rate of 0.1 kg or less of active substance per hectare, visual scoring after about 3 to 4 weeks
Method: as §3

barley = test: Compatibility with crop plants; conditions: pre- or post-emergence treatment in the greenhouse; visual scoring four to five weeks after application; even at relatively high application rates
Description: In further tests in the greenhouse, seeds of a relatively large number of crop plants and weeds were placed in sandy loam and covered with soil. Some of the pots were immediately treated as described in section 1, the others were placed in the greenhouse until the plants had developed two to three true leaves and were then sprayed with 2-iodo-N-[(4-methoxy-6-methyl-1,3,5-triazin-2-yl)carbamoyl]benzenesulfonamide and also, for example, the compounds Nos. I-1, I-2, I-3, I-4, I-12, I-18 and 1-19 from Table 1, as described in section 2.

Structure (SMILES) | herbicidal activity (Stellaria media [1]) | herbicidal activity (Viola tricolor [2]) | herbicidal activity (Matricaria inodora [3]) | herbicidal activity (Papaver rhoeas) | herbicidal activity (Lolium multiflorum [4]) | herbicidal activity (Stellaria media [5]) | herbicidal activity (Veronica persica) | herbicidal activity (Viola tricolor [6]) | herbicidal activity (Matricaria inodora [7]) | herbicidal activity (Ipomoea purpurea) | herbicidal activity (Abuthilon theophrasti) | herbicidal activity (Amaranthus retroflexus) | herbicidal activity (Lolium multiflorum [8]) | damage to barley (barley)
COc1nc(C)nc(NC(=O)NS(=O)(=O)c2ccccc2I)n1 [2-iodo-N-[(4-methoxy-6-methyl-1,3,5-triazin-2-yl)carbamoyl]benzenesulfonamide] | very good herbicidal activity | very good herbicidal activity | very good herbicidal activity | very good herbicidal activity | very good herbicidal activity | very good herbicidal activity | very good herbicidal activity | very good herbicidal activity | very good herbicidal activity | very good herbicidal activity | very good herbicidal activity | very good herbicidal activity | very good herbicidal activity | did not damage barley at all or left only marginal traces of damage
CC[N+](CC)(CC)CC.COc1nc(C)nc(NC(=O)[N-]S(=O)(=O)c2ccccc2I)n1 [Compound I-12] | very good herbicidal activity | very good herbicidal activity | very good herbicidal activity | very good herbicidal activity | very good herbicidal activity | very good herbicidal activity | very good herbicidal activity | very good herbicidal activity | very good herbicidal activity | very good herbicidal activity | very good herbicidal activity | very good herbicidal activity | very good herbicidal activity | did not damage barley at all or left only marginal traces of damage
CCCC[N+](CCCC)(CCCC)CCCC.COc1nc(C)nc(NC(=O)[N-]S(=O)(=O)c2ccccc2I)n1 [Compound I-18] | very good herbicidal activity | very good herbicidal activity | very good herbicidal activity | very good herbicidal activity | very good herbicidal activity | very good herbicidal activity | very good herbicidal activity | very good herbicidal activity | very good herbicidal activity | very good herbicidal activity | very good herbicidal activity | very good herbicidal activity | very good herbicidal activity | did not damage barley at all or left only marginal traces of damage

Source: patent publication US20100311592A1, “USE OF 2-IODO-N 4-METHOXY-6-METHYL-1,3,5-TRIAZINE-2-YL CARBAMOYL BENZENESULFONAMIDE AND/OR SALTS THEREOF FOR COMBATING UNDESIRED PLANT GROWTH IN SELECTED USEFUL PLANT CROPS OR NON-CULTIVATED LAND” (Bayer CropScience AG, priority 2007, published 2010)
